Laboratory results: patent US20240041842A1, “PHARMACEUTICAL COMPOSITION FOR INHIBITING CANCER METASTASIS” (INDUSTRY-ACADEMIC COOPERATION FOUNDATION, YONSEI UNIVERSITY, priority 2021, published 2024)

Tests used:
Snail [1] = experiment: Western blot of Snail protein; type: cell-based, human; settings: for Snail expression levels: BAPTA or calmidazolium for 1 hour; for Snail: BMS303141 24 hours, NDI-091143 24 hours, SB-204990 2 hours; for Snail expression: H2O2 or NAC for 6 hours
Method: (§1) Cells were harvested, washed with PBS, and lysed on ice with RIPA buffer containing protease and phophatase inhibitor cocktail (GenDEPOT). After 15 minutes of incubation, the cell lysates were centrifuged at 15,000 rpm at 4° C. for 10 minutes. Protein concentration was measured by Bradford assay (Bio-rad, 500-0006). Equal amounts of total protein were placed on an SDS gel electrophoresis and transferred to a PVDF membrane (Bio-rad). The membrane was blocked with 5% skim milk for 1 hour at room temperature and incubated overnight at 4° C. with primary antibody in a buffer containing 0.1% Tween-20. Subsequently, the membrane was washed three times with Tween-PBS buffer and incubated for 1 hour at room temperature using a secondary antibody diluted in blocking buffer containing 0.1% Tween-20. Subsequently, the membrane was washed three times for 10 minutes each using Tween-TBS. Densitometry of Western blots was measured using ImageJ software.
[…] For autophagy activation, cells were'treated with 2 μM rapamycin (Selleckchem, S1039) for 5 hours. Modulation of intracellular ROS was performed with N-acetyl-cysteine (10 mM) (Sigma, A7250), hydrogen peroxide solution (100 μM to 200 μM) (Sigma, 216763), or CDDO-ME NRF2 activator (50 nM, 100 nM) (Sellckchem, S8078) for 4 to 24 hours. Intercellular calcium signal control was performed for 1 hour using BAPTA-AM (20 μM) (Sigma, A1076) or Calmidazolium Chloride (2.5 μM) (Sigma, C3930). […] For TFEB protein phosphorylation, tacrolimus (1 μM) (Selleckchem, S5003) was treated for 1 hour. […] During siRNA treatment, each siRNA was treated to a concentration of 40 to 50 nM and treated together with Lipofectamine RNAiMax (Thermo Fisher Scientific, 13778150) for transformation, and were used for experiments 48 to 72 hours later. For cDNA treatment, each cDNA was treated to a concentration of 1 to 2 μg in a 6-well plate and treated with Lipofectamine 2000 (Thermo Fisher Scientific, 11668019) for transformation, and were used for experiments 24 hours later.

phospho-AMPK T172 = experiment: Western blot of phospho-AMPK T172; type: cell-based, human; settings: HBEC-KL cell line; for AMPK phosphorylation: BAPTA or calmidazolium for 1 hour; for AMPK phosphorylation at T172: H2O2 or NAC for 6 hours
Method: as §1
For inhibition of autophagy, cells were treated with 50 μM chloroquine (Sigma, C6628) for 12 to 24 hours. For autophagy activation, cells were'treated with 2 μM rapamycin (Selleckchem, S1039) for 5 hours. Modulation of intracellular ROS was performed with N-acetyl-cysteine (10 mM) (Sigma, A7250), hydrogen peroxide solution (100 μM to 200 μM) (Sigma, 216763), or CDDO-ME NRF2 activator (50 nM, 100 nM) (Sellckchem, S8078) for 4 to 24 hours. Intercellular calcium signal control was performed for 1 hour using BAPTA-AM (20 μM) (Sigma, A1076) or Calmidazolium Chloride (2.5 μM) (Sigma, C3930). C646 (25 μM) (Sigma, SML0002), curcumin (10 μM) (Selleckchem, S1848) CBP/p300 inhibitor or vorinostat ([…]) (Selleckchem, S1047) HDAC inhibitor was treated for 24 hours to modulate snail protein acetylation. and CHIR99021 GSK3b inhibitor (3 μM) (Sigma, SML1046) was treated for 24 hours to control Snail protein phosphorylation. For TFEB protein phosphorylation, tacrolimus (1 μM) (Selleckchem, S5003) was treated for 1 hour. […] During siRNA treatment, each siRNA was treated to a concentration of 40 to 50 nM and treated together with Lipofectamine RNAiMax (Thermo Fisher Scientific, 13778150) for transformation, and were used for experiments 48 to 72 hours later. For cDNA treatment, each cDNA was treated to a concentration of 1 to 2 μg in a 6-well plate and treated with Lipofectamine 2000 (Thermo Fisher Scientific, 11668019) for transformation, and were used for experiments 24 hours later.

HBEC-KL cell line = experiment: Matrigel invasion assay, HBEC-KL cell line; type: cell-based, human; settings: HBEC-KL; 50 uM BMS303141 24 hours, 1 um NDI-091143 24 hours, 20 uM SB-204990 2 hours
Method: For the 2D invasion assay, the inserts were pre-coated with 300 μg/ml Matrigel (Coming, 354234). After staining with […] dye (Bio-Rad, 1450013), 1×10^5 live cells per 8-um-pore cell-culture insert (Costar. 3422) were seeded in 0.5% ACL medium. 10% ACL medium was added to the outside of the insert. In the case of lung cancer and pancreatic cancer cell lines, after inoculation in 1% RPMI medium, 20% RPMI medium was added to the outside of the insert. Plates were incubated for 24 hours at 37° C. After incubation, the insert was fixed with 3.7% PFA, washed, stained with 0.4% crystal violet, and the upper membrane was washed and dried.

A549-luc cells = experiment: A549-luc tail vein injection metastasis model; type: in vivo; settings: nude mice; 100 mg/kg, qd p.o 20 consecutive days
Method: FIG. 13E illustrates role of STO-609 on cancer metastasis in an A549-luc tail vein injection model. After intravenous injection of A549-luc cells into nude mice, vehicle or STO-609 (25 mg/kg and 100 mg/kg qd) was injected for 28 days starting one day after the injection. A picture taken of a bioluminescent image when 4 weeks have elapsed after injection is shown (above). Analysis results of the total metastasis burden by photonic flux are shown (below). FIG. 13H illustrates the role of BMS303141 on cancer metastasis in an A549-luc tail vein injection model. A549-luc cells were intravenously injected into nude mice, and then vehicle or BMS303141 (100 mg/kg q.d.) was injected for 20 days starting one day after the injection. A bioluminescence image when 3 weeks have elapsed after injection is shown. 7- to 9-week-old BALB/c-nu Sic mice were obtained from SLC, Inc. (Shizuoka, Japan) and used, A549-luc cells (#JCRB1414) or SNAI1 shRNA-mediated knockdown A549-luc cells were injected at 3-4.5×10^6 cells through the tail vein of mice. After 3 to 4 weeks, metastasis was monitored by bioluminescence imaging analysis. More specifically, after injecting D-luciferin (75 mg/kg) (PerkinElmer, 122799) into the abdominal cavity of the mouse, images were obtained using an IVIS imaging system (IVIS 200, PerkinElmer, Waltham, MA, USA) in the supine position. Lung tissue was obtained for histopathological analysis. Images were analyzed using commercially available software (ImageScope; Aperio Technologies). In the STO-609 efficacy test, STO-609 (25 mg, 100 mg/kg/day) was orally administered to mice on the day of injection. In the BMS303141 efficacy test, BMS303141 (100 mg/kg/day) was orally administered to mice on the day of injection.

Snail [2] = experiment: Immunoprecipitation-immunoblot of phosphorylated/acetylated or K48 polyubiquitinated Snail in A549 cells; type: cell-based, human; settings: 25 uM C646 or 3 uM SAHA
Method: FIG. 9K illustrates the immunoprecipitation-immunoblot result of phosphorylated/acetylated or K48 polyubiquitinated Snail assay after transfection of wild-type Snail (pFLAG-Snail WT) or acetylation-defective Snail mutant (pFLAG-SnailK146R) into A549 cells and/or treatment with 25 uM C646.
FIG. 9L illustrates the immunoprecipitation-immunoblot results of the polyubiquitinated Snail assay after transfection of HA-ubiquitin and wild-type Snail (pFLAG-Snail WT) or acetylation-defective Snail mutant (pFLAG-SnailK146R) into A549 cells and/or treatment with 25 uM C646 for 2 hours (left) and/or treatment of 3 uM SAHA for 5 hours (right).
(§2) For immunoprecipitation, equal amounts of lysate and Co-IP buffer (40 mM HEPES, pH 7.4, 120 mM NaCl, 2 mM EDTA, 0.3% CHAPS (Sigma, 10810118001), 10 mM pyrophosphate (Sigma, 221368), 10 mM glycerophosphate (Sigma, G9422), 50 mM NaF, phosphatase and protease inhibitor mixture) were mixed. Cell lysates (1 μg protein) were incubated overnight at 4° C. on anti-FLAG® M2 Affinity Gel (Sigma, A2220) or anti-acetyl-lysine antibody coated agarose (ImmuneChem Pharmaceuticals, ICP0388). The immunoprecipitate was then washed three times in IP buffer, and the immunoprecipitated complex was dissolved and separated by boiling in IP buffer for 5 minutes.

TFEB = experiment: Western blot / immunoprecipitation-immunoblot of TFEB (acetylated, phosphorylated, total); type: cell-based, human; settings: HBEC-KL; 1 uM FK506, 1 hour
Method: FIG. 11J illustrates a diagram of immunoblot results of the […] a control (left), and the immunoprecipitation-immunoblot result of TFEB acetylated HBEC-KL cells under the same conditions (right) is also shown,
as §1, §2

TFEB (CLEAR network) = experiment: CLEAR motif-driven luciferase reporter assay; type: cell-based, human; settings: HBEC-KL; 1 uM FK506, 1 hour
Method: To compare the TFEB reporter activity with other cell lines (HBEC30KT, HBEC-K, and HBEC-KL), the pGL4.70 5× CLEAR Rluc and pSt4.14 Fluc vectors were transiently co-transfected and normalized luciferase activity was measured in Dual-Measured by Luciferase® Reporter Assay System (Promega, E1910),

LC3 = experiment: Autophagic flux (LC3 Western blot, mRFP-GFP-LC3 lysosomal delivery assay); type: cell-based, human; settings: HBEC-KL cell line; NAC or 50 uM STO-609, 24 hours
Method: as §1, with “Representative GFP-LC3, RFP-LC3 and overlapping images are shown. In addition, red puncta (mRFP+/GFP−) and yellow puncta (mRFP+/GFP+) per cell were quantified and graphed (n=15 cells/treatment). Cells” for “Cells”

[3] = HBEC-KL cell line, 20 nM bortezomib

O=C(O)CN(CC(=O)O)c1ccccc1OCCOc1ccccc1N(CC(=O)O)CC(=O)O [BAPTA] was tested, and the Snail expression levels (Snail [1]; HBEC-KL cell line) was “reduced” and the AMPK phosphorylation (phospho-AMPK T172) was “reduced”.

In the case of COc1ccc(-c2ccccc2)cc1NS(=O)(=O)c1cc(Cl)cc(Cl)c1O [BMS303141], the Snail (Snail [1]; HBEC-KL) was “reduced”, the Matrigel invasion (HBEC-KL cell line) was “reduced” and the “total degree of metastasis” value (A549-luc cells) was “reduced”.

CC1=NN(c2ccc(C(=O)O)cc2)C(=O)/C1=C\c1ccc(-c2cc(C)c(C)cc2[N+](=O)[O-])o1 [C646] was tested, and the “K48 polyubiquitination of wild-type Snail” value (Snail [2]; pFLAG-Snail WT) was “increased”, the “phosphorylation of wild-type Snail” value (Snail [2]; pFLAG-Snail WT) was “increased” and the “phosphorylation and acetylation of K146R Snail” value (Snail [2]; pFLAG-SnailK146R) was “did not affect”.

With COC(=O)[C@]12CCC(C)(C)C[C@H]1[C@H]1C(=O)C=C3[C@@]4(C)C=C(C#N)C(=O)C(C)(C)[C@@H]4CC[C@@]3(C)[C@]1(C)CC2 [CDDO-ME] the “level of phospho-AMPK T172” value (phospho-AMPK T172; CDDO-ME for 24 hours) was “reduced”.

For C=CC[C@@H]1/C=C(\C)C[C@H](C)C[C@H](OC)[C@H]2O[C@@](O)(C(=O)C(=O)N3CCCC[C@H]3C(=O)O[C@H](/C(C)=C/[C@@H]3CC[C@@H](O)[C@H](OC)C3)[C@H](C)[C@@H](O)CC1=O)[C@H](C)C[C@@H]2OC [FK506, tacrolimus], the phospho-TFEB (TFEB) was “increasing” and the CLEAR activity (TFEB (CLEAR network)) was “decreased”.

With OO [H2O2, hydrogen peroxide] the Snail expression (Snail [1]; HBEC-KL cell line) was “increased” and the “AMPK phosphorylation at T172” value (phospho-AMPK T172) was “increased”.

With CC(=O)N[C@@H](CS)C(=O)O [NAC, N-acetyl-cysteine] the Snail expression (Snail [1]; HBEC-KL cell line) was “decreased”, the “AMPK phosphorylation at T172” value (phospho-AMPK T172) was “decreased” and the autophagic flux (LC3) was “decreased”.

In the case of COC(=O)c1cc(Cl)c(O)c(S(=O)(=O)Nc2cc(-c3ccccc3)c(F)cc2F)c1 [NDI-091143], the Snail (Snail [1]; HBEC-KL) was “reduced” and the Matrigel invasion (HBEC-KL cell line) was “reduced”.

For O=C(O)C[C@@]1(O)C[C@@H](CCCCCCc2ccc(Cl)cc2Cl)OC1=O [SB-204990], the Snail (Snail [1]; HBEC-KL) was “reduced” and the Matrigel invasion (HBEC-KL cell line) was “reduced”.

For CC(C)C[C@H](NC(=O)[C@H](Cc1ccccc1)NC(=O)c1cnccn1)B(O)O [bortezomib], the “reduction of Snail by STO-609, with bortezomib also treated” value (Snail [1]; [3]) was “restored”, the “reduction of Snail by chloroquine (CQ), with bortezomib also treated” value (Snail [1]; [3]) was “restored” and the “Snail reduction caused by the ACLY inhibitor, with Bortezomib” value (Snail [1]; HBEC-KL, 20 nM bortezomib for 3 hours) was “restored”.

For Clc1ccc(C(c2ccc(Cl)cc2)n2cc[n+](CC(OCc3ccc(Cl)cc3Cl)c3ccc(Cl)cc3Cl)c2)cc1 (stereo not shown) [calmidazolium], the Snail expression levels (Snail [1]; HBEC-KL cell line) was “reduced” and the AMPK phosphorylation (phospho-AMPK T172) was “reduced”.
